Measured values reported in DBAASP.
In brackets after ≈: the same amount, converted by molar mass.

Columns and labels:
Experiment in all cases: ≥ marks a high value that may be exact or a test limit, other limits are often not marked, values filed in µg/mL are converted to µM
[1] = test system: Escherichia coli NCTC 10418
[2] = test system: Micrococcus luteus ATCC 4698
[3] = test system: Staphylococcus aureus USA 100
Salmonella typhimurium = test system: Salmonella typhimurium
Proteus mirabilis = test system: Proteus mirabilis
Staphylococcus aureus = test system: Staphylococcus aureus
Shigella dysenteriae = test system: Shigella dysenteriae
[4] = test system: Escherichia coli DH5alpha
Pseudomonas aeruginosa = test system: Pseudomonas aeruginosa
[5] = test system: Staphylococcus epidermidis
Bacillus subtilis = test system: Bacillus subtilis
[6] = test system: Staphylococcus aureus ATCC 6538
Klebsiella pneumoniae = test system: Klebsiella pneumoniae
Micrococcus luteus = test system: Micrococcus luteus
[7] = test system: Staphylococcus epidermidis ATCC 12228
Escherichia coli = test system: Escherichia coli
[8] = test system: Bacillus subtilis ATCC 23857
[9] = test system: Escherichia coli ATCC 25922
[10] = test system: Staphylococcus aureus ATCC 25923
[11] = test system: Klebsiella pneumoniae ATCC 700603
Saccharomyces cerevisiae = test system: Saccharomyces cerevisiae
[12] = test system: Pseudomonas aeruginosa ATCC 15692
[13] = test system: Candida albicans ATCC 90028
[14] = test system: Pseudomonas aeruginosa ATCC 9027
[15] = test system: Staphylococcus aureus USA 300
Escherichia coli JW0013 = test system: Escherichia coli JW0013
Escherichia coli MG1655 = test system: Escherichia coli MG1655

Question: With CC[C@H](C)[C@H](NC(=O)[C@H](CC(N)=O)NC(=O)[C@@H](NC(=O)[C@H](C)N)C(C)C)C(=O)N1CCC[C@H]1C(=O)N[C@@H](Cc1ccccc1)C(=O)N[C@@H](CCCCN)C(=O)N[C@H](C(=O)N[C@@H](Cc1cnc[nH]1)C(=O)N[C@@H](CC(C)C)C(=O)N[C@@H](CCCN=C(N)N)C(=O)N[C@H]1CSSC[C@@H](C(=O)O)NC(=O)[C@H](Cc2ccccc2)NC(=O)[C@H](C)NC(=O)[C@H](C)NC(=O)[C@H](CCCCN)NC1=O)C(C)C [AVNIPFKVHLRCKAAFC] as the molecule, how does the MIC [1] read?
Answer: 20 µM (≈ 38.3 µg/mL)

Question: NCCCC[C@@H]1NC(=O)[C@H](CCCN=C(N)N)NC(=O)[C@H](CCCCN)NC(=O)[C@H](Cc2c[nH]c3ccccc23)NC(=O)[C@H](CCCCN)NC(=O)[C@H](CCCCN)NC(=O)[C@@H](N)CSSC[C@@H](C(=O)O)NC(=O)[C@H](CCCN=C(N)N)NC1=O [CKKWKRKRC] was tested. Which MIC [2] did it give?
Answer: 0.6 µM (≈ 0.74 µg/mL)

Question: For NC(=O)[C@H](CCCN=C(N)N)NC(=O)[C@H](CCC(=O)O)NC(=O)[C@H](CCCN=C(N)N)NC(=O)[C@@H](N)CCC(=O)O [ERER], which MIC [3] is on record?
Answer: ≥ 100 µM

Question: With CC(C)C[C@H](NC(=O)[C@@H](NC(=O)[C@H](CCCCN)NC(=O)[C@H](CO)NC(=O)[C@H](C)NC(=O)[C@@H](NC(=O)[C@H](CCCCN)NC(=O)[C@H](Cc1ccccc1)NC(=O)[C@H](CC(C)C)NC(=O)[C@H](C)NC(=O)CNC(=O)[C@H](CC(C)C)NC(=O)[C@@H](N)Cc1ccccc1)C(C)C)C(C)C)C(=O)O [FLGALFKVASKVL] as the molecule, how does the MIC (Salmonella typhimurium) read?
Answer: ≥ 71.8 µM

Question: What about the MIC (Proteus mirabilis) of the same molecule?
Answer: ≥ 144 µM

Question: And the MIC (Staphylococcus aureus)?
Answer: 2.23 µM (≈ 3.1 µg/mL)

Question: What about the MIC (Shigella dysenteriae) of the same molecule?
Answer: 18 µM (≈ 25 µg/mL)

Question: And the MIC [4]?
Answer: ≥ 194 µM

Question: And the MIC (Pseudomonas aeruginosa)?
Answer: 71.8 µM (≈ 100 µg/mL)

Question: And the MIC [5]?
Answer: 2.23 µM (≈ 3.1 µg/mL)

Question: And the MIC (Bacillus subtilis)?
Answer: 8.98 µM (≈ 12.5 µg/mL)

Question: What about the MIC [6] of the same molecule?
Answer: 71.8 µM (≈ 100 µg/mL)

Question: What about the MIC (Klebsiella pneumoniae) of the same molecule?
Answer: 18 µM (≈ 25 µg/mL)

Question: What about the MIC [2] of the same molecule?
Answer: ≥ 35.9 µM

Question: And the MIC (Micrococcus luteus)?
Answer: 4.52 µM (≈ 6.3 µg/mL)

Question: What about the MIC [7] of the same molecule?
Answer: 180 µM (≈ 250 µg/mL)

Question: And the MIC (Escherichia coli)?
Answer: 18 µM (≈ 25 µg/mL)

Question: For CC[C@H](C)[C@H](NC(=O)CN)C(=O)N[C@H](C(=O)N[C@@H](C)C(=O)NCC(=O)N[C@H](C(=O)N[C@H](C(=O)N[C@@H](C)C(=O)N[C@@H](CCCCN)C(=O)N[C@H](C(=O)N[C@@H](CCCCN)C(=O)N[C@@H](CCCCN)C(N)=O)[C@@H](C)CC)[C@@H](C)CC)[C@@H](C)CC)[C@@H](C)CC [GIIAGIIAKIKK], which MIC [8] is on record?
Answer: ≥ 32 µM

Question: And the MIC [9]?
Answer: > 128 µM

Question: Which results are given for CC[C@H](C)[C@H](NC(=O)CN)C(=O)N[C@H](C(=O)N[C@@H](CCCN=C(N)N)C(=O)NCC(=O)N[C@H](C(=O)N[C@H](C(=O)N[C@@H](CCCCN)C(=O)N[C@H](C(=O)N[C@H](C(=O)N[C@@H](CCCCN)C(=O)N[C@@H](CCCN=C(N)N)C(N)=O)[C@@H](C)CC)[C@@H](C)CC)[C@@H](C)CC)[C@@H](C)CC)[C@@H](C)CC [GIIRGIIKIIKR]?
Answer: MIC [8]: 8 µM (≈ 11 µg/mL); MIC [9]: 64 µM (≈ 88.2 µg/mL)

Question: What does the source list for CC[C@H](C)[C@H](NC(=O)[C@H](CCCCN)NC(=O)[C@H](CCCCN)NC(=O)[C@H](C)NC(=O)[C@@H](NC(=O)[C@H](C)NC(=O)[C@H](CC(C)C)NC(=O)[C@H](CC(C)C)NC(=O)[C@H](CCCCN)NC(=O)[C@H](CCCCN)NC(=O)[C@H](CC(C)C)NC(=O)[C@H](CC(N)=O)NC(=O)CN)C(C)C)C(=O)N[C@@H](CC(C)C)C(N)=O [GNLKKLLAVAKKIL]?
Answer: MIC [8]: 4 µM (≈ 6.03 µg/mL); MIC [10]: 16 µM (≈ 24.1 µg/mL); MIC [11]: 16 µM (≈ 24.1 µg/mL); MIC (Escherichia coli): 4 µM (≈ 6.03 µg/mL)

Question: With CC[C@H](C)[C@H](NC(=O)[C@H](CO)NC(=O)[C@H](CO)NC(=O)[C@H](C)NC(=O)[C@H](Cc1c[nH]c2ccccc12)NC(=O)CN)C(=O)NCC(=O)N[C@@H](CO)C(=O)N[C@H](C(=O)N[C@@H](CC(C)C)C(=O)NCC(=O)N[C@@H](CCCCN)C(=O)N[C@@H](Cc1ccccc1)C(=O)N[C@@H](C)C(=O)N[C@@H](CCCCN)C(=O)NCC(=O)NCC(=O)N[C@@H](C)C(=O)N[C@@H](CCC(N)=O)C(=O)N[C@@H](C)C(=O)N[C@@H](Cc1ccccc1)C(=O)N[C@@H](CC(C)C)C(=O)N[C@@H](CCC(N)=O)C(=O)N1CCC[C@H]1C(=O)N[C@@H](CCCCN)C(=O)O)[C@@H](C)CC [GWASSIGSILGKFAKGGAQAFLQPK] as the molecule, how does the MIC (Saccharomyces cerevisiae) read?
Answer: ≥ 64 µM

Question: What about the MIC [10] of the same molecule?
Answer: > 256 µM

Question: What about the MIC [12] of the same molecule?
Answer: ≥ 128 µM

Question: And the MIC (Micrococcus luteus)?
Answer: 0.5 µM (≈ 1.26 µg/mL)

Question: And the MIC [9]?
Answer: 32 µM (≈ 80.6 µg/mL)

Question: For NCCCC[C@H](NC(=O)[C@H](Cc1c[nH]c2ccccc12)NC(=O)[C@H](CCCCN)NC(=O)[C@H](Cc1c[nH]c2ccccc12)NC(=O)[C@@H](N)CCCCN)C(=O)N[C@@H](Cc1c[nH]c2ccccc12)C(=O)O [KWKWKW], which MIC [13] is on record?
Answer: ≥ 100 µM

Question: And the MIC [14]?
Answer: > 100 µM

Question: What about the MIC [3] of the same molecule?
Answer: ≥ 100 µM

Question: And the MIC [15]?
Answer: ≥ 100 µM

Question: How did the MIC [8] turn out when CC[C@H](C)[C@H](NC(=O)[C@H](CCCCN)NC(=O)[C@H](CCCCN)NC(=O)[C@H](C)NC(=O)[C@H](C)NC(=O)[C@H](C)NC(=O)[C@H](CC(C)C)NC(=O)[C@H](CC(C)C)NC(=O)[C@H](C)NC(=O)[C@H](CCCCN)NC(=O)[C@H](CC(C)C)NC(=O)[C@H](CC(N)=O)NC(=O)[C@@H](N)CC(C)C)C(=O)N[C@@H](CC(C)C)C(N)=O [LNLKALLAAAKKIL] was run?
Answer: 8 µM (≈ 11.8 µg/mL)

Question: And the MIC [10]?
Answer: 16 µM (≈ 23.7 µg/mL)

Question: And the MIC [14]?
Answer: 16 µM (≈ 23.7 µg/mL)

Question: What about the MIC [11] of the same molecule?
Answer: 16 µM (≈ 23.7 µg/mL)

Question: What about the MIC [9] of the same molecule?
Answer: 8 µM (≈ 11.8 µg/mL)

Question: Which MIC [8] does the source give for CC(C)C[C@H](NC(=O)[C@H](C)NC(=O)[C@H](CCCCN)NC(=O)[C@H](CC(C)C)NC(=O)[C@H](CC(N)=O)NC(=O)[C@@H](N)CC(C)C)C(=O)N[C@@H](CC(C)C)C(=O)N[C@@H](C)C(=O)N[C@H](C(=O)N[C@@H](C)C(=O)N[C@@H](CCCCN)C(=O)N[C@@H](CCCCN)C(N)=O)C(C)C [LNLKALLAVAKK] here?
Answer: ≥ 128 µM

Question: And the MIC [10]?
Answer: > 128 µM

Question: And the MIC [14]?
Answer: > 128 µM

Question: What about the MIC [11] of the same molecule?
Answer: > 128 µM

Question: What about the MIC [9] of the same molecule?
Answer: > 128 µM

Question: How did the MIC [3] turn out when CC(C)C[C@H](NC(=O)[C@H](CCCN=C(N)N)NC(=O)[C@@H](N)CC(C)C)C(=O)N[C@@H](CCCN=C(N)N)C(N)=O [LRLR] was run?
Answer: ≥ 100 µM

Question: With NC(=O)[C@H](CCCN=C(N)N)NC(=O)[C@H](CCCN=C(N)N)NC(=O)[C@H](CCCN=C(N)N)NC(=O)[C@@H](N)CCCN=C(N)N [RRRR] as the molecule, how does the MIC [3] read?
Answer: ≥ 100 µM

Question: CC[C@H](C)[C@H](NC(=O)[C@H](CCCN=C(N)N)NC(=O)[C@H](CCCN=C(N)N)NC(=O)[C@@H]1CCCN1C(=O)[C@@H]1CCCN1C(=O)[C@H](CCCN=C(N)N)NC(=O)[C@@H]1CCCN1C(=O)[C@H](CCCN=C(N)N)NC(=O)[C@@H]1CCCN1C(=O)[C@H](CC(C)C)NC(=O)[C@H](Cc1c[nH]c2ccccc12)NC(=O)[C@@H]1CCCN1C(=O)[C@@H]1CCCN1C(=O)[C@H](CCCCN)NC(=O)[C@H](CC(=O)O)NC(=O)[C@@H](N)C(C)C)C(=O)N[C@@H](Cc1ccc(O)cc1)C(=O)N[C@@H](CC(N)=O)C(=O)N[C@@H](CCCN=C(N)N)C(N)=O [VDKPPWLPRPRPPRRIYNR] was tested. Which MIC (Escherichia coli JW0013) did it give?
Answer: 1.99 µM (≈ 4.8 µg/mL)

Question: With CC[C@H](C)[C@H](NC(=O)[C@H](CCCCN)NC(=O)CNC(=O)[C@H](CC(C)C)NC(=O)[C@H](Cc1ccccc1)NC(=O)[C@H](CCC(N)=O)NC(=O)[C@H](Cc1ccccc1)NC(=O)[C@@H](N)C(C)C)C(=O)N[C@H](C(=O)N[C@@H](Cc1cnc[nH]1)C(=O)N[C@@H](Cc1cnc[nH]1)C(=O)N[C@H](C(=O)NCC(=O)N[C@@H](CC(N)=O)C(=O)N[C@@H](Cc1ccccc1)C(=O)N[C@H](C(=O)N[C@@H](C)C(=O)NCC(=O)N[C@@H](Cc1ccccc1)C(=O)N[C@@H](CO)C(=O)N[C@@H](Cc1cnc[nH]1)C(=O)N[C@H](C(=O)N[C@@H](Cc1ccccc1)C(N)=O)C(C)C)C(C)C)C(C)C)[C@@H](C)CC [VFQFLGKIIHHVGNFVAGFSHVF] as the molecule, how does the MIC (Escherichia coli MG1655) read?
Answer: ≥ 128 µM
